Results on 2 compounds are retold here after PMC8112869, “Therapeutic inhibition of keratinocyte TRPV3 sensory channel by local anesthetic dyclonine” (eLife, 2021).

Structures are written as SMILES.

One assay deals with C57B/6 mice. The assay can be described thus: Carvacrol-induced itch-scratching behavior in mice. It is filed as in vivo, mouse. Here is the method:
To assess itch-scratching behaviors, the hair of the rostral part of the mouse’s right neck was shaved using an electric hair clipper 24 hr before the start of experiments. Trpv3^-/- mice have been described previously ([Wang et al., 2021]). Scratching behaviors were recorded on video. The number of itch-scratching bouts was counted through video playback analysis. One scratching bout was defined as an episode in which a mouse lifted its right hind limb to the injection site and scratched continuously for any time length until this limb was returned to the floor or mouth ([Wilson et al., 2013]). All behavioral experiments were conducted in a double-blind manner. […] [Sun and Dong, 2016]).

A further assay deals with T1, mouse TRPV3 (Mus musculus, UniProt Q8K424).
T1 sequence (Q8K424 1-791): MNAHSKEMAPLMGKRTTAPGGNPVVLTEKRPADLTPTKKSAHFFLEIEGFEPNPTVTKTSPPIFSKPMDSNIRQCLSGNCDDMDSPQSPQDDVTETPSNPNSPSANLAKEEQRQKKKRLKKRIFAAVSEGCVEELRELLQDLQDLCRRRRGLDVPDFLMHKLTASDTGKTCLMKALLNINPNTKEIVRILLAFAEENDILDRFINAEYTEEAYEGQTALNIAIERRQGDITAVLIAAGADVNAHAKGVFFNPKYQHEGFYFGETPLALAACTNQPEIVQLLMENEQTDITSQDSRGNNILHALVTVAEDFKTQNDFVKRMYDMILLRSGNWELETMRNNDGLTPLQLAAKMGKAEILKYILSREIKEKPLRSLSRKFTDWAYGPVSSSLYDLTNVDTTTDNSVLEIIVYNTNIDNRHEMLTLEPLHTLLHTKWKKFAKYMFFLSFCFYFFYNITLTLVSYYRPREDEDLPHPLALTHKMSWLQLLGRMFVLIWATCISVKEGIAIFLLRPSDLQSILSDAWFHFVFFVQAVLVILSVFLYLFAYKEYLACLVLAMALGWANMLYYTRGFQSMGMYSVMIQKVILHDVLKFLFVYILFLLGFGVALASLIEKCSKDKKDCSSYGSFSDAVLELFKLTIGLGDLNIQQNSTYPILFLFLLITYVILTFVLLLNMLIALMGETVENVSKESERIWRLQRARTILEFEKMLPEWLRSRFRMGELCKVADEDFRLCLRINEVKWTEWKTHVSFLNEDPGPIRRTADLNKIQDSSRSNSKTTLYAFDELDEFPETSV
The experiment in a line: Voltage-step whole-cell recording of TRPV3 currents (40 μM 2-APB) in HEK 293T cells. Type of assay: cell-based. Also on record: expressed in transfected cells; host or cells: HEK 293T. The conditions noted are these: steps –160 to +180 mV, dyclonine 10, 30 μM, RR 10 μM. From the text: Conventional whole-cell and excised patch-clamp recording methods were used. For the recombinant expressing system, green fluorescent EGFP was used as a surface marker for gene expression. Recording pipettes were pulled from borosilicate glass capillaries (World Precision Instruments) and fire-polished to a resistance between 2 and 4 MΩ when filled with internal solution containing (in mM) 140 CsCl, 2.0 MgCl2, 5 EGTA, and 10 HEPES, pH 7.4 (adjusted with CsOH). Bath solution contained (in mM): 140 NaCl, 5 KCl, 3 EGTA, and 10 HEPES, pH 7.4 adjusted with NaOH. For recordings in keratinocytes, the bath saline consisted of (in mM) 140 NaCl, 5 KCl, 2 MgCl2, 2 CaCl2, 10 glucoses, and 10 HEPES, pH 7.4 adjusted with NaOH, and the pipette solution contained (in mM) 140 CsCl, 5 EGTA, and 10 HEPES, pH 7.3 adjusted with CsOH. […] For a subset of recordings, currents were amplified using an Axopatch 200B amplifier (Molecular Devices, Sunnyvale, CA) and recorded through a BNC-2090/MIO acquisition system (National Instruments, Austin, TX) using QStudio developed by Dr. Feng Qin at State University of New York at Buffalo. […] As determined by the conductance tests, the solution around a patch under study was fully controlled by the application of a flow rate of 100 μl/min or greater. […]

For `Cc1ccc(C(C)C)cc1O` [carvacrol], the “change in the number of scratching bouts” value with C57B/6 mice (TRPV3-/- mice, intradermal carvacrol 0.1%, 50 μl) was “did not elicit a remarkable change”. The “accumulated scratching bouts over 30 min” value with C57B/6 mice (WT TRPV3 mice, intradermal carvacrol 0.1%, 50 μl) came out at 137.2 ± 33.9. The “scratching bouts over 30 min” value in the assay with C57B/6 mice (carvacrol (0.1%, 50 μl) with pretreatment of normal saline) is 137.8 ± 18.3.

For `N.N.N.N.N.N.N.N.N.N.N.N.N.N.[Cl-].[Cl-].[Cl-].[Cl-].[Cl-].[Cl-].[O-2].[O-2].[Ru+3].[Ru+3].[Ru+4]` [RR, ruthenium red], at mouse TRPV3, the “effect on TRPV3-mediated inward and outward currents (voltage dependence)” value is recorded as “only inhibited TRPV3-mediated inward currents but enhanced outward currents”.
